# Test results taken from US11612567B2, “Ocular inserts comprising a covalently linked steroid dimer” (Ripple Therapeutics Corporation, priority 2018, dated 2023).
# Tests used:
# intraocular pressure [1] = test: Intracameral implants of Compound 7 in subjects with glaucoma (Example 17); type: in vivo; details: intracameral cylinders, pellets or fibrous meshes; anecortave release by surface erosion over months to years
# Text: Cylinders, pellets, or fibrous meshes of Compound 7 are formed using the methods described above. The implants are inserted intracamerally into subjects with glaucoma.
# intraocular pressure [2] = test: Suprachoroidal insert of Compound 7 in a subject with glaucoma (Example 18); type: in vivo; details: cylinder or tube as conduit into suprachoroidal space, anecortave release; months to years
# Text: A cylinder or tube of Compound 7 is formed using the methods described above. The implant is inserted into the eye of a subject with glaucoma to create a conduit from the anterior chamber into the suprachoroidal space.
# [3] = test system: post-surgical inflammation and infection; test: Intracameral implants of Compound 1 and 9 in subjects receiving ocular surgery (Example 21); type: in vivo; details: intracameral implants of both compounds; dexamethasone and fusidic acid release over days to weeks to a few months
# Text: Cylinders, pellets, or fibrous meshes of Compound 1 and 9 are formed using the methods described above. The implants are inserted intracamerally into subjects that are receiving an ocular surgical procedure.
# [4] = test system: post-surgical infection in the eye; test: Intracameral implants of Compound 9 in subjects receiving ocular surgery (Example 19); type: in vivo; details: fusidic acid release over days to weeks to a few months
# Text: Cylinders, pellets, or fibrous meshes of Compound 9 are formed using the methods described above. The implants are inserted intracamerally into subjects that are receiving an ocular surgical procedure.
# [5] = test system: post-surgical inflammation in the eye; test: Schlemm's canal fiber or tube implant after surgery (Example 11); type: in vivo; details: release by surface erosion over weeks to months
# Text: A fiber or tube of Compound 1 is formed using the methods described above.
# [6] = test system: VEGF-induced retinal vascular leakage; test: VEGF-induced retinal vascular leakage after intravitreal implantation, fundus microscopy and fluorescein angiography; type: in vivo; details: Dutch belted rabbits, intravitreal 27 G and 30 G cylinders; VEGF at 1 week and 10 weeks post-implantation; versus sham injection
# Procedure: The cylinders were extruded with 27 G and 30 G nozzles to get diameters ˜0.2 mm and ˜0.12 mm respectively. The cylinders were cut to different lengths, ETO gas sterilized, and injected intravitreally into the eyes of Dutch belted rabbits. VEGF was injected intravitreally at 1 week and 10 weeks post-implantation to induce retinal vascular leakage. Sham injection was used as a negative control.
# [7] = Intravitreal cylinders for inflammatory or neovascularization conditions (Example 9); type: in vivo; details: cylinders injected into the vitreous humour
# Procedure: Cylinders of Compound 1 are formed using methods described above. The cylinders are injected into the vitreous humour and release dexamethasone to the surrounding tissues including tissues in the anterior eye, the posterior eye, and surrounding tissues. […] The intravitreal implants release drug that may be used in subjects with diabetic macular edema, macular edema from retinal vein occlusion, uveitis, cystoid macular edema, post-surgical inflammation (e.g. cataract or glaucoma surgery), age-related macular degeneration, and other ocular conditions.
# [8] = 37° C.
# Procedure: Heat-molded pellets from Compound 1 (˜1 mm×1 mm) were placed in 20 mL glass vials and 2 mL of release buffer (either 100% phosphate buffered saline (PBS), 1% fetal bovine serum (FBS) in PBS, or 100% FBS) was added. Samples were incubated at 37° C. on a shaker rotating at 115 rpm. After 1 day, 3 days, 7 days, and subsequently in alternating 3 and 4 day intervals (i.e., 1, 3, 7, 10, 14 days etc.), release buffer was sampled directly (PBS) or syringe filtered, proteins were precipitated with acetonitrile, and drug release products were extracted. The samples were analyzed by high performance liquid chromatography (HPLC) to quantify drug products. Cumulative drug release was calculated and plotted as a percentage of the total drug in each pellet released over time (FIG. 1E).
# Drug release from the glassy state heat molded pellets was carried out in PBS and/or 100% FBS, as described in Example 1, for different time periods.
# Drug release from the pellets (˜1 mm×1 mm and 1 mg of total mixture) was carried out in PBS as described in Example 1. Cumulative drug release was calculated and plotted as a percentage of the total drug released over time.
# rat eyes = test: Surface erosion of intravitreal implants in rat eyes, fundus microscopy; type: in vivo; details: heat-molded cylinders injected intravitreally
# Procedure: The cylinders were injected intravitreally into rat eyes.
# [9] = test system: tissue response to the device; test: Coating on a MIGS device inserted into the eye (Example 10); type: in vivo; details: drug released over months to years
# Text: Coating of Compound 1 is applied onto a MIGS device as described in the methods above.
# [10] = test system: post-surgical inflammation in the eye; test: Intracameral fiber mesh or cylinder after surgery (Example 12); type: in vivo; details: steady release over several months, e.g., three months
# Text: Fibers or cylinders are formed from Compound 1 according to the methods described above. The fibers are woven into a mesh and are placed into the eye of a subject having received surgery.
# [11] = test system: inflammation or neovascularization; test: Micro- or nanoparticles injected into the suprachoroidal space (Example 13); type: in vivo; details: release over months to years
# Procedure: Micro- or nanoparticles of Compound 1 are formed using the methods described above. The particles are injected into the suprachoroidal space of a subject with an ocular condition associated with inflammation or neovascularization or as an adjunctive therapy to reduce inflammation associated with ocular surgery.
# [12] = test system: endotoxin-induced inflammation in the eye; test: Endotoxin (LPS)-induced inflammation in the eye after intravitreal implantation, OCT vitreal cell count and retinal thickness; type: in vivo; details: rat, intravitreal 23 G and 30 G implants; LPS 1 day (acute) or 60 days (sub-chronic) post-implantation
# Procedure: The implants were loaded into 23 G and 30 G needles respectively and were sterilized by ethylene oxide (ETO) gas. An acute study evaluating only the 23 G heat molded implants was performed and a sub-chronic study evaluating both implants followed. […] Inflammation in the eye was induced using an intravitreal injection of the endotoxin lipopolysaccharide (LPS) 1-day post-implantation for the acute study and 60 days post-implantation for the sub-chronic study. […] Optical coherence tomography (OCT) was used to image the eyes (FIG. 6E) and inflammation was assessed by quantifying the number of cells in the vitreous humour and the thickness of the retinal tissue measured from the OCT images.
# intraocular pressure [13] = test: Suprachoroidal insert of Compound 1 in a subject with glaucoma (Example 14); type: in vivo; details: cylinder or tube as conduit from anterior chamber into suprachoroidal space; months to years
# Text: A cylinder or tube of Compound 1 is formed using the methods described above. The implant is inserted into the eye of a subject with glaucoma to create a conduit from the anterior chamber into the suprachoroidal space.
# [14] = Dexamethasone in the vitreous humour after intravitreal injection of cylinders; type: in vivo; details: New Zealand white rabbits, intravitreal cylinders 30 G×1 mm, 30 G×6 mm, 23 G×6 mm
# Procedure: The cylinders were injected intravitreally into New Zealand white rabbits and dexamethasone was quantified in the vitreous humour at different time points.
Compound,intraocular pressure (intraocular pressure [1]),intraocular pressure (intraocular pressure [2]),post-surgical inflammation and infection [3],post-surgical infection [4],post-surgical inflammation [5],retinal vascular leakage [6],duration of dexamethasone release by surface erosion [7],"in vitro drug release, dose and duration ([8]; extruded cylinders 30 G×1 mm, 30 G×6 mm, 23 G×6 mm, PBS)","cumulative drug release plotted over time ([8]; glassy state heat molded pellets ~1 mm×1 mm, PBS and/or 100% FBS)","erosion of pellets over time (representative images) ([8]; heat-molded pellets ~1 mm×1 mm, 100% FBS)",erosion of the implant in the eye over time (fundus microscopy) (rat eyes),tissue response and fibrosis [9],inflammation in the eye [10],inflammation or neovascularization [11],inflammation in the eye (vitreal cell count and retinal thickness by OCT) [12],intraocular pressure (intraocular pressure [13]),dexamethasone concentration in the vitreous humour over time [14]
Anecortave-Triethylene Glycol-Anecortave [Compound 7],lower intraocular pressure in the eye,reduce intraocular pressure,–,–,–,–,–,–,–,–,–,–,–,–,–,–,–
Fusidic Acid-Triethylene Glycol-Fusidic Acid (carbonate ester) [Compound 9],–,–,reduce inflammation associated with the surgery and prevent infection,prevent infection,–,–,–,–,–,–,–,–,–,–,–,–,–
"C[C@@H]1C[C@H]2[C@@H]3CCC4=CC(=O)C=C[C@]4(C)[C@@]3(F)[C@@H](O)C[C@]2(C)[C@@]1(O)C(=O)COC(=O)OCCOCCOCCOC(=O)OCC(=O)[C@@]1(O)[C@H](C)C[C@H]2[C@@H]3CCC4=CC(=O)C=C[C@]4(C)[C@@]3(F)[C@@H](O)C[C@@]21C [Compound 1, Dexamethasone-Triethylene Glycol-Dexamethasone]",–,–,reduce inflammation associated with the surgery and prevent infection,–,prevent or reduce inflammation associated with the surgical procedure,inhibited VEGF-induced retinal vascular leakage,months to years,roughly following surface erosion theory,mostly linearly,surface erosion over time,surface erosion of the implant,inhibit a tissue response to the device and reduce fibrosis,Inflammation in the eye is reduced,reduces inflammation or neovascularization,inhibit endotoxin-induced inflammation in the eye,reduce intraocular pressure,consistent dose of dexamethasone is released
